One may read the IC50 as the concentration that gives 50% inhibition.

For eleven compounds, IC50 results are on record in ChEMBL document CHEMBL5727290, “6-(5-hydroxy-1H-pyrazol-1-yl)nicotinamide inhibitors of PHD” (2019).

For the experiment, the target named is Egl nine homolog 1 (Homo sapiens, UniProt Q9GZT9). As to the kind of experiment: Inhibition Assay: The IC50 values for the PHD2 enzyme (residues 181-417) were determined by mixing increasing amounts of inhibitor with a fixed amount of enzyme (5 nM, final concentration) and Biotin labeled peptide (Biotin-Asp-Leu-Glu-Met-Leu-Ala-Pro-Tyr-Ile-Pro-Met-Asp-Asp-Asp-Phe-Gln-Leu, 1 uM final concentration) and 2-Oxyglutarate (2 uM final concentration) in 50 mM HEPES, 50 mM KCl, 0.5 mM TCEP, 2 uM FeCl2, 0.1 mg/ml BSA, at pH 7.3. The reaction was conducted by pre-incubating the enzyme in the presence of inhibitor for 60 min at room temperature. The activity of the free enzyme was measured by adding the peptide, the 2-Oxoglutarate (see above for final concentrations), and Ascorbic Acid (1 mM final concentration). The enzymatic activity was quenched after 60 min by adding an excess of a tight binding inhibitor to the assay mixture. The amount of product released was measured by using a LC/MS system (Agilent HPLC with Applied Biosystems API3000 Mass Spectrometer).
Chain of Egl nine homolog 1 (Q9GZT9 whole entry, the tested form may be a part): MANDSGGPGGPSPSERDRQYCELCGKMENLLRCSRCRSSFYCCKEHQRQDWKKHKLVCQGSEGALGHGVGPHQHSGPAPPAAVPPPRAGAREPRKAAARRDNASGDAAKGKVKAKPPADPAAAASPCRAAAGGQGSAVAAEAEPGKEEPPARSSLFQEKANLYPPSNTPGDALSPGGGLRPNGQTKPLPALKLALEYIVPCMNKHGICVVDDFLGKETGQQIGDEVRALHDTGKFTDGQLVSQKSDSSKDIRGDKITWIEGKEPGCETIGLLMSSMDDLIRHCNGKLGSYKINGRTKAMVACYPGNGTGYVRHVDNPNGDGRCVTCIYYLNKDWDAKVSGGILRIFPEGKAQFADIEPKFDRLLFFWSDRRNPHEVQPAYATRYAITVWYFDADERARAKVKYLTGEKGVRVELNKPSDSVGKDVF

Take `CCN1CCC(NC(=O)c2ccc(-n3ncc(-c4ccnc(OC)c4)c3O)nc2)CC1`: the IC50 is 77.6 nM. For `CC(C)(C)NC(=O)c1ccc(-n2ncc(-c3cccnc3)c2O)nc1` the value was 10 nM; for `COc1cc(-c2cnn(-c3ccc(C(=O)NCCC4CCCN4C)cn3)c2O)ccn1` (stereo unspecified), 126 nM; for `COc1cc(-c2cnn(-c3ccc(C(=O)NCCCN4CCCC4)cn3)c2O)ccn1`, 97.7 nM. With `CN1CCC(NC(=O)c2ccc(-n3ncc(-c4ccc(C#N)cc4)c3O)nc2)CC1=O` (stereo unspecified), the IC50 stood at 129 nM. For `COc1cc(-c2cnn(-c3ccc(C(=O)NCCCN4CCCCC4)cn3)c2O)ccn1` the value was 87.1 nM; for `COc1cc(-c2cnn(-c3ccc(C(=O)NCCCN4CCCC4=O)cn3)c2O)ccn1`, 51.3 nM. For `COc1cc(C#N)ccc1-c1cnn(-c2ccc(C(=O)NCCC3CCCO3)cn2)c1O` (stereo unspecified) the value was 66.1 nM; for `COc1cc(-c2cnn(-c3ccc(C(=O)NCCCn4ccnc4)cn3)c2O)ccn1`, 37.2 nM. Then `CCN1CCC(CN(C)C(=O)c2ccc(-n3ncc(-c4ccc(C#N)cc4)c3O)nc2)C1` (stereo unspecified), with 56.2 nM. Take `COCCNC(=O)c1cnc(-n2ncc(-c3ccc(C#N)cc3)c2O)cc1C`: the IC50 is 97.7 nM.
